{
  "source": "patent US9469878B2",
  "about": "“Methods of treating cancer comprising targeting NQO1” (The Board of Regents of the University of Texas System, priority 2010, dated 2016)",
  "key": {"PC-3 cells": {"tested_on": "PC-3 cells", "test": "Apoptosis by TUNEL assay", "assay_type": "cell-based, human", "conditions": "2 μM β-lap alone, NQO1-expressing PC-3 cells", "description": "Apoptosis was quantified using ApoDirect™ (TUNEL) assays from BD Pharmingen as described (Bey et al., 2007, Proc. Natl. Acad. Sci. USA, 104:11832-837). Samples were analyzed by using FC-500 flow cytometer (Beckman Coulter Electronics, Brea, Calif.) and Elite acquisition software. Data were expressed as means±SE from three independent experiments."}, "[1]": {"tested_on": "HMEC 1585 normal human mammary epithelial cells", "description": "Cells were cultured and treated as described above. […] Experiments were repeated at least three times, and data expressed as relative survival (treated/control×100%) means±SEM. […] The multi-target model was used to describe the shape of relative survival curves. In this model, a final slope (D0) resulting from multiple-event killing and quasithreshold (Dq) doses were used to represent the size or width of the shoulder of the curve. The extrapolation number (n) is also a measure of the width of the shoulder. The three parameters, n, Do, and Dq were related by the expression: loge n=Dq/Do.\nCells were treated with β-lap with or without dicoumarol for 2 h. […] Data were expressed as relative survival (treated/control×100%). Experiments were repeated at least three times, and data expressed as relative survival means±SEM. […] Human mammary epithelial cells were plated in 48 well dishes in growth media containing a 50:50 mixture of MGEM/DME:F12 medium supplemented with insulin, human epidermal growth factor and hydrocortisone."}, "[2]": {"tested_on": "wild-type *1/*1 non-small cell lung cancer (NSCLC) cell lines", "test": "LD50 responses of NSCLC cell lines treated with β-Lap", "assay_type": "cell-based, human", "conditions": "all of the wild-type *1/*1 NSCLC cells, 2 h treatment, 7 days later", "description": "FIG. 16 depicts NQO1 levels predict response to NQO1 bioactivatable therapies. In (a) LD50 responses of non-small cell lung cancer (NSCLC) cell lines treated with β-Lap for 2 h and harvester 7 days later. LD50 responses were plotted as a function of NQO1 enzymatic levels. The notations, *1/*1 and *2/*2 represent the NQO1 status of each cell line as homozygous wild type (*1/*1) or homozygous polymorphic (*2/*2) genotypes. Note that all heterozygote cells containing one wild-type allele (*1) are wild-type, phenotypically, for NQO1 expression, such that only homozygous *2/*2 or 3/3 are considered non-responsive to NQO1 bioactivatable drugs. Note the high resistance of H596 and H2862 cell lines to β-lapachone compared to all of the wild-type *1/*1 cells with LD50 values less than 5 μM. Note also that *3/*3 SNPs in NQO1 are far more rare than *2/*2 single point mutations in NQO1. In (b), Kaplan-Meier survival curve of mice bearing orthotopic lung tumors implanted with *1/*1 A549 cells. Mice were treated intravenously (5 doses every other day) with β-lap-HPβ-CD or vehicle alone (HPβ-CD). Similar studies with *2/*2 or *3/*3 tumors were performed and these tumors were non-responsive to β-lapachone or other NQO1 bioactivatable drug therapies."}},
  "data": [
    {"smiles": "CC1(C)CCC2=C(O1)c1ccccc1C(=O)C2=O", "note": "[β-Lap, 3,4-dihydro-2,2-dimethyl-2H-naphtho[1,2-b]pyran-5,6-dione]", "values": [
      {"measurement": "Apoptosis", "setting": "PC-3 cells", "value": "5±2", "unit": "%"},
      {"measurement": "LD50 β-Lap", "setting": "[1]", "value": ">10"},
      {"measurement": "LD50", "setting": "[2]", "value": "less than 5 μM"}
    ]}
  ]
}
